In patent US20260285850A1, “SUBSTITUTED OXAZOLIDINONES AND IMIDAZOLINONES AS HERBICIDES” (FMC CORPORATION, priority 2023, published 2026):

How the values were obtained:
Format in all cases: in vivo
[1] = test system: green foxtail (Setaria viridis); assay: Test A preemergence soil spray, visual injury rating 0-100; conditions: 10 days, 0 = no effect, 100 = complete control
In short: (§1)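 Visual injury ratings (0, no effect; 100, complete control) were assigned relative to untreated plants 10 days after treatment. Test chemicals, formulated with a surfactant-containing non-phytotoxic solvent, were applied in loam-sand soil either as a directed soil spray before emergence or to emerged plants, and plants were kept in a greenhouse.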

[2] = test system: ryegrass, Italian (italian ryegrass, Lolium multiflorum); assay: as above; conditions: 10 days, 0 = no effect, 100 = complete control
In short: as §1

kochia (Bassia scoparia) [3] = assay: as above; conditions: 10 days, 0 = no effect, 100 = complete control
In short: as §1

[4] = test system: oat, wild (wild oat, Avena fatua); assay: as above; conditions: 10 days, 0 = no effect, 100 = complete control
In short: as §1

[5] = test system: palmer (palmer amaranth, palmer pigweed, Amaranthus palmeri); assay: as above; conditions: 10 days, 0 = no effect, 100 = complete control
In short: as §1

[6] = test system: wheat (Triticum aestivum); assay: as above; conditions: 10 days, 0 = no effect, 100 = complete control
In short: as §1

soybean (Glycine max) [7] = assay: as above; conditions: 10 days, 0 = no effect, 100 = complete control
In short: as §1

[8] = test system: blackgrass (Alopecurus myosuroides); assay: as above; conditions: 10 days, 0 = no effect, 100 = complete control
In short: as §1

corn (Zea mays) [9] = assay: as above; conditions: 10 days, 0 = no effect, 100 = complete control
In short: as §1

[10] = test system: ragweed (common ragweed, Ambrosia artemisiifolia); assay: as above; conditions: 10 days, 0 = no effect, 100 = complete control
In short: as §1

[11] = test system: barnyardgrass (Echinochloa crus-galli); assay: as above; conditions: 10 days, 0 = no effect, 100 = complete control
In short: as §1

rice (Oryza sativa) = assay: Test B flooded paddy test, visual plant response rating 0-100; conditions: 250 g ai/ha, Flood, applied to paddy water, evaluated after 13 days
In short: (§2)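 Each species was raised to two leaves before flooding to a 3 cm depth and dosing the water with compound. Injury was assessed by eye after 13 days under greenhouse conditions.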

[12] = test system: sedge, umbrella (small-flower umbrella sedge, Cyperus difformis); assay: as above; conditions: 250 g ai/ha, Flood, applied to paddy water, evaluated after 13 days
In short: as §2

[13] = test system: ducksalad (Heteranthera limosa); assay: as above; conditions: 250 g ai/ha, Flood, applied to paddy water, evaluated after 13 days
In short: as §2

[14] = test system: barnyardgrass (Echinochloa crusgalli); assay: as above; conditions: 250 g ai/ha, Flood, applied to paddy water, evaluated after 13 days
In short: as §2

[15] = test system: green foxtail (Setaria viridis); assay: Test A postemergence application, visual injury rating 0-100; conditions: 10 days
In short: as §1

[16] = test system: horseweed (Erigeron canadensis); assay: as above; conditions: 10 days
In short: as §1

[17] = test system: ryegrass, Italian (italian ryegrass, Lolium multiflorum); assay: as above; conditions: 10 days
In short: as §1

[18] = test system: galium (catchweed bedstraw, Galium aparine); assay: as above; conditions: 10 days
In short: as §1

kochia (Bassia scoparia) [19] = assay: as above; conditions: 10 days
In short: as §1

[20] = test system: oat, wild (wild oat, Avena fatua); assay: as above; conditions: 10 days
In short: as §1

[21] = test system: palmer (palmer amaranth, palmer pigweed, Amaranthus palmeri); assay: as above; conditions: 10 days
In short: as §1

[22] = test system: wheat (Triticum aestivum); assay: as above; conditions: 10 days
In short: as §1

soybean (Glycine max) [23] = assay: as above; conditions: 10 days
In short: as §1

[24] = test system: blackgrass (Alopecurus myosuroides); assay: as above; conditions: 10 days
In short: as §1

corn (Zea mays) [25] = assay: as above; conditions: 10 days
In short: as §1

[26] = test system: ragweed (common ragweed, Ambrosia artemisiifolia); assay: as above; conditions: 10 days
In short: as §1

[27] = test system: barnyardgrass (Echinochloa crus-galli); assay: as above; conditions: 10 days
In short: as §1

[28] = 31 g ai/ha, postemergence, 0 = no effect, 100 = complete control
[29] = Postemergence, 125 g ai/ha, 0 is no effect, 100 is complete control

In the case of `CC1(C(=O)NC2CC=C(C(=O)OCC(F)(F)F)C2)CN(c2cc(F)cc(F)c2)C(=O)O1` (single isomer, unassigned) [Compound 24], the “Foxtail, Green plant response rating (0-100)” value ([1]; 31 g ai/ha) is reported as 50, the “Foxtail, Green plant response rating (0 to 100 scale)” value ([1]; 125 g ai/ha) is reported as 50 and the “Ryegrass, Italian plant response rating (0-100)” value ([2]; 31 g ai/ha) is reported as 0. For the same compound, the “Ryegrass, Italian plant response rating (0 to 100 scale)” value ([2]; 125 g ai/ha) was 0, the “Kochia plant response rating (0-100)” value (kochia (Bassia scoparia) [3]; 31 g ai/ha) was 0 and the “Kochia plant response rating (0 to 100 scale)” value (kochia (Bassia scoparia) [3]; 125 g ai/ha) was 0. The “Oat, Wild plant response rating (0-100)” value ([4]; 31 g ai/ha) was 0, the “Oat, Wild plant response rating (0 to 100 scale)” value ([4]; 125 g ai/ha) was 20 and the “Amaranth, Palmer plant response rating (0-100)” value ([5]; 31 g ai/ha) was 30. For the same compound, the “Amaranth, Palmer plant response rating (0 to 100 scale)” value ([5]; 125 g ai/ha) was 70, the “Wheat plant response rating (0-100)” value ([6]; 31 g ai/ha) was 0 and the “Wheat plant response rating (0 to 100 scale)” value ([6]; 125 g ai/ha) was 70. For the same compound, the “Soybean plant response rating (0-100)” value (soybean (Glycine max) [7]; 31 g ai/ha) was 0, the “Soybean plant response rating (0 to 100 scale)” value (soybean (Glycine max) [7]; 125 g ai/ha) was 10 and the “Blackgrass plant response rating (0-100)” value ([8]; 31 g ai/ha) was 0. For the same compound, the “Blackgrass plant response rating (0 to 100 scale)” value ([8]; 125 g ai/ha) was 0, the “Corn plant response rating (0-100)” value (corn (Zea mays) [9]; 31 g ai/ha) was 0 and the “Corn plant response rating (0 to 100 scale)” value (corn (Zea mays) [9]; 125 g ai/ha) was 0. For the same compound, the “Ragweed plant response rating (0-100)” value ([10]; 31 g ai/ha) was 0, the “Ragweed plant response rating (0 to 100 scale)” value ([10]; 125 g ai/ha) was 10 and the “Barnyardgrass plant response rating (0-100)” value ([11]; 31 g ai/ha) was 10. For the same compound, the “Barnyardgrass plant response rating (0 to 100 scale)” value ([11]; 125 g ai/ha) was 10, the “Plant response rating, Rice (0 to 100 scale, 0 is no effect and 100 is complete control)” value (rice (Oryza sativa)) was 0 and the “Plant response rating, Sedge, Umbrella (0 to 100 scale, 0 is no effect and 100 is complete control)” value [12] was 0. For the same compound, the “Plant response rating, Ducksalad (0 to 100 scale, 0 is no effect and 100 is complete control)” value [13] was 0, the “Plant response rating, Barnyardgrass (0 to 100 scale, 0 is no effect and 100 is complete control)” value [14] was 0 and the “Foxtail, Green plant response rating (0-100)” value [15, 28] was 0. The “Foxtail, Green plant response rating (0 to 100 scale)” value [15, 29] was 60, the “Horseweed plant response rating (0-100)” value [16, 28] was 20 and the “Horseweed plant response rating (0 to 100 scale)” value [16, 29] was 10. For the same compound, the “Ryegrass, Italian plant response rating (0-100)” value [17, 28] was 40, the “Ryegrass, Italian plant response rating (0 to 100 scale)” value [17, 29] was 60 and the “Galium plant response rating (0-100)” value [18, 28] was 40. The “Galium plant response rating (0 to 100 scale)” value [18, 29] was 80, the “Kochia plant response rating (0-100)” value (kochia (Bassia scoparia) [19]; [28]) was 20 and the “Kochia plant response rating (0 to 100 scale)” value (kochia (Bassia scoparia) [19]; [29]) was 90. For the same compound, the “Oat, Wild plant response rating (0-100)” value [20, 28] was 10, the “Oat, Wild plant response rating (0 to 100 scale)” value [20, 29] was 60 and the “Amaranth, Palmer plant response rating (0-100)” value [21, 28] was 0. For the same compound, the “Amaranth, Palmer / Pigweed, Palmer plant response rating (0 to 100 scale)” value [21, 29] was 40, the “Wheat plant response rating (0-100)” value [22, 28] was 30 and the “Wheat plant response rating (0 to 100 scale)” value [22, 29] was 90. The “Soybean plant response rating (0-100)” value (soybean (Glycine max) [23]; [28]) was 0, the “Soybean plant response rating (0 to 100 scale)” value (soybean (Glycine max) [23]; [29]) was 60 and the “Blackgrass plant response rating (0-100)” value [24, 28] was 0. For the same compound, the “Blackgrass plant response rating (0 to 100 scale)” value [24, 29] was 60, the “Corn plant response rating (0-100)” value (corn (Zea mays) [25]; [28]) was 10 and the “Corn plant response rating (0 to 100 scale)” value (corn (Zea mays) [25]; [29]) was 90. For the same compound, the “Ragweed plant response rating (0-100)” value [26, 28] was 20, the “Ragweed plant response rating (0 to 100 scale)” value [26, 29] was 30 and the “Barnyardgrass plant response rating (0-100)” value [27, 28] was 20. For the same compound, the “Barnyardgrass plant response rating (0 to 100 scale)” value [27, 29] was 80.
